Laboratory results as given in patent US20050054103A1, “Expansion of renewable stem cell populations using modulators of PI 3-kinase” (priority 2003, published 2005).

Tests used:
CD34+ cells = assay: Ex vivo expansion of CD34+ cell enriched cultures with RXR, RAR and RAR+RXR antagonists (CFU, CD34+ counts, FACS); type: cell-based, human; conditions: 10^−7 M, with TPO, FLT3, IL-6 and IL-3; 3 and 5 weeks
Description: Cultures were prepared and maintained as described above.
, the percentage of cells bearing the CD34^+ marker (considered to be mostly committed progenitor cells), as well as the percentage of cells bearing the markers CD34^+/CD38^− and CD34^+Lin^− […]

CD34 cells = assay: Transition metal chelators in CD34+ cell liquid cultures (cell number, CD34 cells, clonability); type: cell-based, human; conditions: for Cells/ml (×10^4): FL, SCF, IL-6 50 ng/ml; for CFU expansion (fold): CFU day 7 / CFU day 0
Description: The interphase layer of mononuclear cells were collected, washed three times with Ca/Mg free phosphate buffered saline containing 1% bovine serum albumin (BSA). The cells were incubated for 30 min. at 4° C. with murine monoclonal anti CD34 antibody (0.5 μg/10^6 mononuclear cells) and thereafter isolated using the miniMACS apparatus (Miltenyi-Biotec, Bergisch, Gladbach, Germany) according to the manufacturer's protocol.
Culture procedures: For the expansion of progenitor cells, CD34^+ enriched fractions or unseparated mononuclear cells were seeded at about 1-3×10^4 cells/ml in either alpha minimal essential medium containing 10% preselected fetal calf serum (FCS) (both from GIBCO, Grand Island, N.Y.), or serum-free medium (Progenitor-34 medium, Life Technologies, Grand Island, N.Y.). The media were supplemented with a mixture of growth factors and transition metal chelators. The cultures were incubated at 37° C. in an atmosphere of 5% CO2 in air with extra humidity. Half of the medium was changed weekly with fresh medium containing all the supplements.
Cloning potential evaluations: The cloning potential of cells developed in the liquid culture was assayed, at different intervals, in semi-solid medium. The cells were washed and seeded in 35 mm dishes in methylcellulose containing alpha medium supplemented with recombinant growth factors (SCF, G-CSF, GM-CSF and EPO). Following 2 weeks incubation, the cultures were scored with an inverted microscope. Colonies were classified as blast, mixed, erythroid, myeloid, and megakaryocytic, according to their cellular composition.
Morphological assessment: In order to characterize the resulting culture populations, aliquots of cells were deposited on a glass slide (cytocentrifuge, Shandon, Runcorn, UK), fixed and stained in May-Grunwald Giemsa. Other aliquots were stained by benzidine for intracellular hemoglobin.
Immunofluorescence staining: At different intervals, cells from the liquid cultures were assayed for CD34 antigen. Aliquots were harvested, washed and incubated on ice with FITC-labeled anti CD45 monoclonal antibody and either PE-labeled anti CD34 (HPCA-2) monoclonal antibody or PE-labeled control mouse Ig. After incubation, red cells were lysed with lysing solution, while the remaining cells were washed and analyzed by flow cytometer.
Flow cytometry: Cells were analyzed and sorted using FACStar^plus flow cytometer (Becton-Dickinson, Immunofluorometry systems, Mountain View, Calif.). Cells were passed at a rate of 1,000 cells/second through a […] nozzle, using saline as the sheath fluid. […] The PMTs was set at the appropriate voltage. Logarithmic amplification was applied for measurements of fluorescence and linear amplification—for forward light scatter. At least 10^4 cells were analyzed.
Cord blood-derived CD34 cells were plated in liquid culture in the presence of: FL—50 ng/ml, SCF—50 ng/ml, IL-6—50 ng/ml, with or without IL-3—20 ng/ml, with or without TEPA—10 μM. On day 7, the percentage of CD34 cells and the total cell number were determined. Aliquots equivalent to 1×10^3 initiating cells were assayed on days 0 and 7 for colony forming cells (CFU) by cloning in semi-solid medium. CFU expansion represents the ratio of CFU present on day 7 to CFU present on day 0.
CD34^+ cells derived from human neonatal cord blood were purified by immunomagnetic method and then cultured in liquid medium supplemented with cytokines either with or without transition metal chelators. At weekly intervals, the cultures were demi-depopulated by removing half of the culture content (supernatant and cells) and replacing it with fresh medium, cytokines and the chelators. At the indicated weeks the cellular content of the cultures were quantified for total cells (by a manual microscopic/hemocytometric method), for CD34^+ cells (by immuno-flow cytometry) and for clonogenic cells (by cloning the cells in cytokine-supplemented semi-solid medium).

[1] = TEPA 10 μM, without IL-3, day 7

CCc1ccc(C2=CC(C)(C)Sc3ccc(C#Cc4ccc(C(=O)O)cc4)cc32)cc1 [AGN 194310]
activity on ex vivo expansion of stem/progenitor cells (CFU, CD34+, CD34+/38−, CD34+/Lin−) (CD34+ cells): moderate activity

NCCNCCNCCNCCN [TEPA, tetraethylenepentamine]
effect on differentiation of CD34+ cells (CD34 cells): inhibit differentiation
Cells/ml (×10^4) (CD34 cells; TEPA 10 μM, with IL-3 20 ng/ml, day 7): 11 ×10^4
Cells/ml (×10^4) (CD34 cells; [1]): 2 ×10^4
CD34 cells (%) (CD34 cells; TEPA 10 μM, with IL-3, day 7): 20%
Colonies (Per 1 × 10^3 initiating cells) (CD34 cells; TEPA 10 μM, with IL-3, day 7): 850
CFU expansion (fold) (CD34 cells; TEPA 10 μM, with IL-3): 17 fold
CD34 cells (%) (CD34 cells; [1]): 11.5%
Colonies (Per 1 × 10^3 initiating cells) (CD34 cells; [1]): 140
CFU expansion (fold) (CD34 cells; TEPA 10 μM, without IL-3): 2.8 fold
CFUc expansion (CD34 cells; after 6 weeks): 120 fold
CFUc content of cultures (CD34 cells; after 6 weeks, started with 2.5×10^3 CFUc): 300×10^3 CFUc
time long-term CD34 cultures could be maintained (CD34 cells; early-acting cytokines, no stromal cells, TEPA 10 μM): > 6 weeks
cell proliferation and CFUc expansion in long-term CD34 cultures (CD34 cells; long term cultures with early cytokines): more effective than the short-chain polyamines
concentration with optimal activity (CD34 cells; polyamine chelating agents, long-term CD34 cultures (FIGS. 39a-b)): 40 µM
concentration with optimal activity (CD34 cells; transition metal chelating agents, long-term CD34 cultures (FIGS. 40a-b)): 10 µM
